{
  "source": "paper PMC8498988",
  "about": "“Scaffold Hybridization Strategy Leads to the Discovery of Dopamine D3 Receptor-Selective or Multitarget Bitopic Ligands Potentially Useful for Central Nervous System Disorders” (ACS Chemical Neuroscience, 2021)",
  "key": {"D4R": {"molecular_target": "T1, D4R (Homo sapiens, UniProt P21917)", "T1 sequence (P21917 1-419)": "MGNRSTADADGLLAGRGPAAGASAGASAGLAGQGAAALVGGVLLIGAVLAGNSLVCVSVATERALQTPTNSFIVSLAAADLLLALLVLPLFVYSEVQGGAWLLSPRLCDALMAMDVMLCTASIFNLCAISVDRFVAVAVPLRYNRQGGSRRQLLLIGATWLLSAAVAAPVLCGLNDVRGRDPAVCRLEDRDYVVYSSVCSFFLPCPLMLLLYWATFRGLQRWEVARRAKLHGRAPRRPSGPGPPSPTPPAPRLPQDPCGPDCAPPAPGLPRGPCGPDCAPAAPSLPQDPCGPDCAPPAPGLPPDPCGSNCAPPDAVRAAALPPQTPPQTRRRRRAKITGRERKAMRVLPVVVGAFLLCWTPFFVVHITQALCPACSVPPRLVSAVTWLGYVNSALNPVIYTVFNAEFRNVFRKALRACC", "test": "D4 adenylate cyclase/cAMP functional assay (HEK-D4.4-AC1 cells)", "type": "cell-based", "parameters": "expressed in transfected cells; host or cells: HEK-D4.4-AC1 cells", "conditions": "for EC50 / % stimul., D4 adenylate cyclase: agonist mode; for EC50: inhibition of forskolin-stimulated cAMP formation; for % stimul., D4 adenylate cyclase: normalized to maximal effect of quinpirole; for functional behavior at D4R: in words", "description": "HEK-D4.4-AC1 cells are grown to confluency on […]. The cells are plated at a density of 375,000 cells per well in 48-well plates in DMEM supplemented with 5% FetalClone, 5% BCS, and pen-strep. After ∼36 h, the medium is changed to DMEM supplemented with 10% charcoal-stripped FetalClone and pen-strep. The medium is removed ∼18 h later. For agonist assays, 0.8 mL of EBSS (116 mM NaCl, 22 mM glucose, 15 mM HEPES, 8.7 mM NaH2PO4, 5.4 mM KCl, 1.3 mM CaCl2, 1.2 mM MgSO4, 1 mM ascorbic acid, 0.5 mM IBMX [3-isobutyl-1-methyl-xanthine], and 2% BCS, pH 7.4 at 37 °C) is added, cells are incubated for 20 min, agonists are added, and, after a 20 min incubation, 10 μM of forskolin is added in a final volume of 1 mL. For antagonists, 0.7 mL of EBSS is added, cells are incubated for 10 min, antagonists are added, cells are incubated for 10 min, 2 nM quinpirole is added, and after a 20 min incubation, 10 μM forskolin is added in a final volume of 1 mL. For all conditions, after a 20 min incubation with forskolin, the reaction is terminated by aspiration of the buffer, and 0.1 mL of trichloroacetic acid is added. The plates are incubated for 2 h on a rotator. Adenylate cyclase activity is measured using a cyclic AMP EIA kit (Cayman). Aliquots (9 μL) of each well are diluted to 200 μL with EIA buffer from the kit, and 50 μL of dilution is added to the EIA plate. After addition of tracer and monoclonal antibody, the EIA plates are incubated for 18 h at 4 °C. The reaction is aspirated, the plates are washed with 5 × 300 μL wash buffer, and Ellman’s reagent is added. After a 2 hour incubation in the dark on a rotator, the plates are read at 410 nm. Basal cAMP is subtracted from all values. D4R agonists inhibit forskolin-stimulated cAMP formation, and maximal inhibition is defined with 1 μM quinpirole. Data normalized to percent forskolin stimulation are shown in the graph. The maximal effect is normalized to maximal effect of quinpirole in the tables. For antagonists, maximal reversal of inhibition of cAMP formation is defined with 10 μM haloperidol."}, "5-HT2CR": {"molecular_target": "T2, 5-HT2CR (Homo sapiens, UniProt P28335)", "T2 sequence (P28335 33-458)": "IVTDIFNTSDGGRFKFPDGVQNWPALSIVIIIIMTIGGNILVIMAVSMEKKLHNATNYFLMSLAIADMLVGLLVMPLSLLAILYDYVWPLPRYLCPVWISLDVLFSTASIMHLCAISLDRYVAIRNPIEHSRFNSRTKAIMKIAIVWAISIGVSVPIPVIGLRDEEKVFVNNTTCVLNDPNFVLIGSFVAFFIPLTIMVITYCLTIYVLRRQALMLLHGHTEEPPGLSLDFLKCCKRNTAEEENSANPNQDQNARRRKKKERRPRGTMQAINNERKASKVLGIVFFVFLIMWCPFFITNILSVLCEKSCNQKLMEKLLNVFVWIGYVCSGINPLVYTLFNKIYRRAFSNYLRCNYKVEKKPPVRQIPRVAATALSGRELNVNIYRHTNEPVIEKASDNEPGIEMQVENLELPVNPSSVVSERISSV", "test": "5-HT2C IP-1 formation (HEK-h5HT2C cells)", "conditions": "for % stimul., 5-HT2C IP-1 formation: agonist mode, normalized to the maximal stimulation by serotonin; for functional behavior at 5-HT2CR: in words", "quoted_text": "HEK-h5HT2A or HEK-h5HT2C cells are used as the tissue source. The day before the experiment, cells are plated in 24-well plates at a density of 400,000 cells per well using DMEM supplemented with charcoal-stripped FetalClone. Drugs are made up in stimulation buffer supplied in the kit. Medium is removed from the well, test compounds or serotonin or antagonist or buffer is added, and the cells are incubated for 1 h. The cells are lysed for 30 min, and 50 μL of cell lysate is added to the IP-1 plates. After the addition of appropriate antibodies, the plates are incubated for 3 h, washed six times, incubated with the substrate for 20 min, and, after termination of the reaction, the plate is read on a plate reader at 450 nm with a correction at 620 nm."}, "human 5-HT1AR": {"molecular_target": "T3, human 5-HT1AR (Homo sapiens, UniProt P08908)", "T3 construct": "expressed in transfected cells; host or cells: HeLa", "T3 sequence (P08908 1-422)": "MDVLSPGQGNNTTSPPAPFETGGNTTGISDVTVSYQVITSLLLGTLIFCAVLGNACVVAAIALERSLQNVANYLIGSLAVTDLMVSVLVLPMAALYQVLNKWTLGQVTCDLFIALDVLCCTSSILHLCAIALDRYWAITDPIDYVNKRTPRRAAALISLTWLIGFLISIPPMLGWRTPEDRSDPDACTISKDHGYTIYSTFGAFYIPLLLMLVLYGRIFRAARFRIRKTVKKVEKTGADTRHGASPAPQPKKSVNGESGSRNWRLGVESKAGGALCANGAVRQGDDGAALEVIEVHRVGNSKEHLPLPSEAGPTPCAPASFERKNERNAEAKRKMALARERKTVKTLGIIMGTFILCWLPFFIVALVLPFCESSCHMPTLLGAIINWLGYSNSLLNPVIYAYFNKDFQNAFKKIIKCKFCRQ", "test": "5-HT1A [35S]GTPγS binding assay (HeLa cell membranes)", "type": "biochemical", "conditions": "for EC50 / % stimul., 5-HT1A [35S]GTPγS binding: agonist mode; for % stimul., 5-HT1A [35S]GTPγS binding: standard agonist serotonin; for functional behavior at 5-HT1AR: in words", "description": "The effects of the various compounds tested on [^35S]GTPγS binding in HeLa cells expressing the recombinant human 5-HT1AR were evaluated according to the method of Stanton and Beer with minor modifications. The stimulation experiments are as follows: Cell membranes (50–70 μg of protein) were resuspended in buffer containing 20 mM HEPES, 3 mM MgSO4, and 120 mM NaCl (pH 7.4). […] The samples were transferred to ice, [^35S]GTPγS (200 pM) was added, and the samples were incubated for further 30 min at 30 °C. The preincubation with both agonist and antagonist, before initiating the [^35S]GTPγS binding, ensures that agonist and antagonist are at equilibrium. Nonspecific binding was determined in the presence of […]. Incubation was stopped by the addition of ice-cold HEPES buffer and rapid filtration on Unifilter B filters (PerkinElmer) using a Filtermate cell harvester (Packard). The filters were washed with ice-cold Hepes buffer, and the radioactivity retained on the filters was determined by a TopCount, PerkinElmer liquid scintillation counter at 90% efficiency."}},
  "data": [
    {"smiles": "O=C(NCCCCN1CCN(c2cccc(Cl)c2Cl)CC1)C1COC(c2ccccc2)(c2ccccc2)CO1", "note": "(stereo not drawn) [compound 6, N-(4-(4-(2,3-Dichlorophenyl)piperazin-1-yl)butyl)-5,5-diphenyl-1,4-dioxane-2-carboxamide]", "values": [
      {"measurement": "EC50", "setting": "D4R", "result": "21.7 ± 8.4", "unit": "nM"},
      {"measurement": "% stimul., D4 adenylate cyclase", "setting": "D4R", "result": 76.7, "unit": "%"},
      {"measurement": "functional behavior at D4R", "setting": "D4R", "result": "efficacious 5-HT1AR and D4R agonists with high potency"},
      {"measurement": "EC50", "setting": "5-HT2CR", "result": "380 ± 130", "unit": "nM"},
      {"measurement": "% stimul., 5-HT2C IP-1 formation", "setting": "5-HT2CR", "result": 33, "unit": "%"},
      {"measurement": "functional behavior at 5-HT2CR", "setting": "5-HT2CR", "result": "D3R and 5-HT2CR partial agonists with high and low potency, respectively"},
      {"measurement": "EC50", "setting": "human 5-HT1AR", "result": "23.9 ± 8.8", "unit": "nM"},
      {"measurement": "% stimul., 5-HT1A [35S]GTPγS binding", "setting": "human 5-HT1AR", "result": 90.8, "unit": "%"},
      {"measurement": "functional behavior at 5-HT1AR", "setting": "human 5-HT1AR", "result": "efficacious 5-HT1AR and D4R agonists with high potency"}
    ]},
    {"smiles": "O=C(NCCCCN1CCN(c2cccc(Cl)c2Cl)CC1)C1COc2ccccc2O1", "note": "(stereo not drawn) [compound 9, N-(4-(4-(2,3-Dichlorophenyl)piperazin-1-yl)butyl)-2,3-dihydrobenzo[b][1,4]dioxine-2-carboxamide]", "values": [
      {"measurement": "EC50", "setting": "D4R", "result": "15.3 ± 1.9", "unit": "nM"},
      {"measurement": "% stimul., D4 adenylate cyclase", "setting": "D4R", "result": 73.1, "unit": "%"},
      {"measurement": "functional behavior at D4R", "setting": "D4R", "result": "efficacious 5-HT1AR and D4R agonists with high potency"},
      {"measurement": "EC50", "setting": "5-HT2CR", "result": "750 ± 280", "unit": "nM"},
      {"measurement": "% stimul., 5-HT2C IP-1 formation", "setting": "5-HT2CR", "result": 37, "unit": "%"},
      {"measurement": "functional behavior at 5-HT2CR", "setting": "5-HT2CR", "result": "D3R and 5-HT2CR partial agonists with high and low potency, respectively"},
      {"measurement": "EC50", "setting": "human 5-HT1AR", "result": "22.7 ± 0.82", "unit": "nM"},
      {"measurement": "% stimul., 5-HT1A [35S]GTPγS binding", "setting": "human 5-HT1AR", "result": 96.3, "unit": "%"},
      {"measurement": "functional behavior at 5-HT1AR", "setting": "human 5-HT1AR", "result": "efficacious 5-HT1AR and D4R agonists with high potency"}
    ]},
    {"smiles": "O=C(NCCCCN1CCN(c2cccc(Cl)c2Cl)CC1)C1COCC(c2ccccc2)(c2ccccc2)O1", "note": "(stereo not drawn) [compound 3, N-(4-(4-(2,3-Dichlorophenyl)piperazin-1-yl)butyl)-6,6-diphenyl-1,4-dioxane-2-carboxamide]", "values": [
      {"measurement": "EC50", "setting": "human 5-HT1AR", "result": "232 ± 19", "unit": "nM"},
      {"measurement": "% stimul., 5-HT1A [35S]GTPγS binding", "setting": "human 5-HT1AR", "result": 82.7, "unit": "%"},
      {"measurement": "functional behavior at 5-HT1AR", "setting": "human 5-HT1AR", "result": "5-HT1AR full agonist"}
    ]}
  ]
}
